Results as given in patent publication US11395821B2, “Treatment of EGFR-driven cancer with fewer side effects” (G1 Therapeutics, Inc., priority 2017, dated 2022).

How the values were obtained:
[1] = test system: H1975 (EGFR^L858R/T790M NSCLC Model); assay: Example 3: Compound IV added to afatinib after resistance in H1975 tumor bearing mice; type: in vivo
Description: EGFRL858R/T790M NSCLC model (H1975) tumor bearing mice were treated with daily oral doses of vehicle or afatinib (20 mg/kg). Once tumors became resistant to afatinib (˜D18), Compound IV (100 mg/kg) was added to the treatment regimen. Tumors were measured […]. Data is plotted to compare tumor growth in each cohort during the treatment. The x-axis is days of treatment measured in time and the y-axis is tumor volume measured in mm^3.
Compound IV in combination with the EGFR-TKI afatinib was tested in an EGFR^L858R/T790M NSCLC model to determine the ability of the combination to reverse afatinib resistance. H1975 (EGFR^L858R/T790M NSCLC Model) tumor bearing mice were treated daily with 20 mg/kg of afatinib. Once tumors became resistant to afatinib (about D18), Compound IV (100 mg/kg) was added to the treatment regimen. Tumors were measured twice a week for 40 days. Data is plotted to compare tumor growth in each cohort during treatment.

[2] = G1T38-02: G1T38-related TEAEs by CTCAE grade; type: in vivo, Humans; details: for G1T38-related TEAE: Alopecia / G1T38-related TEAE: Anaemia / G1T38-related TEAE: Blood bilirubin increased / G1T38-related TEAE: Blood creatinine increased / G1T38-related TEAE: Blood lactate dehydrogenase increased / G1T38-related TEAE: Blood urea increased / G1T38-related TEAE: Diarrhoea / G1T38-related TEAE: Dry eye / G1T38-related TEAE: Dry mouth / G1T38-related TEAE: Haematuria / G1T38-related TEAE: Lacrimation increased / G1T38-related TEAE: Leukopenia / G1T38-related TEAE: Monocyte count decreased / G1T38-related TEAE: Nausea / G1T38-related TEAE: Neutropenia / G1T38-related TEAE: Neutrophil count deceased / G1T38-related TEAE: Platelet count decreased / G1T38-related TEAE: Stomatitis / G1T38-related TEAE: Thombocytopenia / G1T38-related TEAE: Vomiting / G1T38-related TEAE: White blood cell count decreased / Number (%) of patients with any G1T38-related TEAEs: N = 18

For CC(C)N1CCN(c2ccc(Nc3ncc4cc5n(c4n3)C3(CCCCC3)CNC5=O)nc2)CC1 [Compound IV], the “acquired resistance to afatinib (tumor volume)” value ([1]; afatinib 20 mg/kg daily, Compound IV 100 mg/kg added at about D18, 40 days) was “reverses acquired resistance to afatinib”, the “decrease of tumor volume, combination vs Compound IV alone and afatinib alone” value ([1]; as worded in Example 3) was “more effective at decreasing tumor volume” and the “afatinib efficacy and time to resistance (tumor volume)” value ([1]; as worded in Example 3: Compound IV 50 or 100 mg/kg in combination with afatinib) was “increased the afatinib efficacy and extended the time to resistance”. For the same compound, the “G1T38-related TEAE: Alopecia” value ([2]; Grade 1-2) was 1 (5.6) n (%), the “G1T38-related TEAE: Anaemia” value ([2]; Grade 1-2) was 6 (33.3) n (%) and the “G1T38-related TEAE: Blood bilirubin increased” value ([2]; Grade 1-2) was 1 (5.6) n (%). For the same compound, the “G1T38-related TEAE: Blood creatinine increased” value ([2]; Grade 1-2) was 2 (11.1) n (%), the “G1T38-related TEAE: Blood lactate dehydrogenase increased” value ([2]; Grade 1-2) was 1 (5.6) n (%) and the “G1T38-related TEAE: Blood urea increased” value ([2]; Grade 1-2) was 1 (5.6) n (%). For the same compound, the “G1T38-related TEAE: Diarrhoea” value ([2]; Grade 1-2) was 5 (27.8) n (%), the “G1T38-related TEAE: Dry eye” value ([2]; Grade 1-2) was 1 (5.6) n (%) and the “G1T38-related TEAE: Dry mouth” value ([2]; Grade 1-2) was 1 (5.6) n (%). For the same compound, the “G1T38-related TEAE: Haematuria” value ([2]; Grade 1-2) was 3 (16.7) n (%), the “G1T38-related TEAE: Lacrimation increased” value ([2]; Grade 1-2) was 1 (5.6) n (%) and the “G1T38-related TEAE: Leukopenia” value ([2]; Grade 1-2) was 1 (5.6) n (%). For the same compound, the “G1T38-related TEAE: Monocyte count decreased” value ([2]; Grade 1-2) was 1 (5.6) n (%), the “G1T38-related TEAE: Nausea” value ([2]; Grade 1-2) was 5 (27.8) n (%) and the “G1T38-related TEAE: Neutropenia” value ([2]; Grade 1-2) was 3 (16.7) n (%). For the same compound, the “G1T38-related TEAE: Neutrophil count deceased” value ([2]; Grade 1-2) was 7 (38.9) n (%), the “G1T38-related TEAE: Platelet count decreased” value ([2]; Grade 1-2) was 2 (11.1) n (%) and the “G1T38-related TEAE: Stomatitis” value ([2]; Grade 1-2) was 1 (5.6) n (%). The “G1T38-related TEAE: Thombocytopenia” value ([2]; Grade 1-2) was 1 (5.6) n (%), the “G1T38-related TEAE: Vomiting” value ([2]; Grade 1-2) was 3 (16.7) n (%) and the “G1T38-related TEAE: White blood cell count decreased” value ([2]; Grade 1-2) was 7 (38.9) n (%). The “Number (%) of patients with any G1T38-related TEAEs” value (“Number (%) of patients” below) ([2]; Grade 1-2) was 11 (61.1) n (%), the “G1T38-related TEAE: Alopecia” value ([2]; Grade 3) was 0 n (%) and the “G1T38-related TEAE: Anaemia” value ([2]; Grade 3) was 0 n (%). The “G1T38-related TEAE: Blood bilirubin increased” value ([2]; Grade 3) was 0 n (%), the “G1T38-related TEAE: Blood creatinine increased” value ([2]; Grade 3) was 0 n (%) and the “G1T38-related TEAE: Blood lactate dehydrogenase increased” value ([2]; Grade 3) was 0 n (%). The “G1T38-related TEAE: Blood urea increased” value ([2]; Grade 3) was 0 n (%), the “G1T38-related TEAE: Diarrhoea” value ([2]; Grade 3) was 0 n (%) and the “G1T38-related TEAE: Dry eye” value ([2]; Grade 3) was 0 n (%). The “G1T38-related TEAE: Dry mouth” value ([2]; Grade 3) was 0 n (%), the “G1T38-related TEAE: Haematuria” value ([2]; Grade 3) was 0 n (%) and the “G1T38-related TEAE: Lacrimation increased” value ([2]; Grade 3) was 0 n (%). For the same compound, the “G1T38-related TEAE: Leukopenia” value ([2]; Grade 3) was 0 n (%), the “G1T38-related TEAE: Monocyte count decreased” value ([2]; Grade 3) was 0 n (%) and the “G1T38-related TEAE: Nausea” value ([2]; Grade 3) was 0 n (%). The “G1T38-related TEAE: Neutropenia” value ([2]; Grade 3) was 1 (5.6) n (%), the “G1T38-related TEAE: Neutrophil count deceased” value ([2]; Grade 3) was 2 (11.1) n (%) and the “G1T38-related TEAE: Platelet count decreased” value ([2]; Grade 3) was 0 n (%). The “G1T38-related TEAE: Stomatitis” value ([2]; Grade 3) was 0 n (%), the “G1T38-related TEAE: Thombocytopenia” value ([2]; Grade 3) was 0 n (%) and the “G1T38-related TEAE: Vomiting” value ([2]; Grade 3) was 0 n (%). The “G1T38-related TEAE: White blood cell count decreased” value ([2]; Grade 3) was 0 n (%), the “Number (%) of patients” value ([2]; Grade 3) was 3 (16.7) n (%) and the “G1T38-related TEAE: Alopecia” value ([2]; Grade 4) was 0 n (%). The “G1T38-related TEAE: Anaemia” value ([2]; Grade 4) was 0 n (%), the “G1T38-related TEAE: Blood bilirubin increased” value ([2]; Grade 4) was 0 n (%) and the “G1T38-related TEAE: Blood creatinine increased” value ([2]; Grade 4) was 0 n (%). For the same compound, the “G1T38-related TEAE: Blood lactate dehydrogenase increased” value ([2]; Grade 4) was 0 n (%), the “G1T38-related TEAE: Blood urea increased” value ([2]; Grade 4) was 0 n (%) and the “G1T38-related TEAE: Diarrhoea” value ([2]; Grade 4) was 0 n (%). For the same compound, the “G1T38-related TEAE: Dry eye” value ([2]; Grade 4) was 0 n (%), the “G1T38-related TEAE: Dry mouth” value ([2]; Grade 4) was 0 n (%) and the “G1T38-related TEAE: Haematuria” value ([2]; Grade 4) was 0 n (%). The “G1T38-related TEAE: Lacrimation increased” value ([2]; Grade 4) was 0 n (%), the “G1T38-related TEAE: Leukopenia” value ([2]; Grade 4) was 0 n (%) and the “G1T38-related TEAE: Monocyte count decreased” value ([2]; Grade 4) was 0 n (%). For the same compound, the “G1T38-related TEAE: Nausea” value ([2]; Grade 4) was 0 n (%), the “G1T38-related TEAE: Neutropenia” value ([2]; Grade 4) was 1 (5.0) n (%) and the “G1T38-related TEAE: Neutrophil count deceased” value ([2]; Grade 4) was 0 n (%). The “G1T38-related TEAE: Platelet count decreased” value ([2]; Grade 4) was 0 n (%), the “G1T38-related TEAE: Stomatitis” value ([2]; Grade 4) was 0 n (%) and the “G1T38-related TEAE: Thombocytopenia” value ([2]; Grade 4) was 0 n (%). For the same compound, the “G1T38-related TEAE: Vomiting” value ([2]; Grade 4) was 0 n (%), the “G1T38-related TEAE: White blood cell count decreased” value ([2]; Grade 4) was 0 n (%) and the “Number (%) of patients” value ([2]; Grade 4) was 1 (5.6) n (%). For the same compound, the “G1T38-related TEAE: Alopecia” value ([2]; Grade 5) was 0 n (%), the “G1T38-related TEAE: Anaemia” value ([2]; Grade 5) was 0 n (%) and the “G1T38-related TEAE: Blood bilirubin increased” value ([2]; Grade 5) was 0 n (%). The “G1T38-related TEAE: Blood creatinine increased” value ([2]; Grade 5) was 0 n (%), the “G1T38-related TEAE: Blood lactate dehydrogenase increased” value ([2]; Grade 5) was 0 n (%) and the “G1T38-related TEAE: Blood urea increased” value ([2]; Grade 5) was 0 n (%). For the same compound, the “G1T38-related TEAE: Diarrhoea” value ([2]; Grade 5) was 0 n (%), the “G1T38-related TEAE: Dry eye” value ([2]; Grade 5) was 0 n (%) and the “G1T38-related TEAE: Dry mouth” value ([2]; Grade 5) was 0 n (%). For the same compound, the “G1T38-related TEAE: Haematuria” value ([2]; Grade 5) was 0 n (%), the “G1T38-related TEAE: Lacrimation increased” value ([2]; Grade 5) was 0 n (%) and the “G1T38-related TEAE: Leukopenia” value ([2]; Grade 5) was 0 n (%). The “G1T38-related TEAE: Monocyte count decreased” value ([2]; Grade 5) was 0 n (%), the “G1T38-related TEAE: Nausea” value ([2]; Grade 5) was 0 n (%) and the “G1T38-related TEAE: Neutropenia” value ([2]; Grade 5) was 0 n (%). The “G1T38-related TEAE: Neutrophil count deceased” value ([2]; Grade 5) was 0 n (%), the “G1T38-related TEAE: Platelet count decreased” value ([2]; Grade 5) was 0 n (%) and the “G1T38-related TEAE: Stomatitis” value ([2]; Grade 5) was 0 n (%). The “G1T38-related TEAE: Thombocytopenia” value ([2]; Grade 5) was 0 n (%), the “G1T38-related TEAE: Vomiting” value ([2]; Grade 5) was 0 n (%) and the “G1T38-related TEAE: White blood cell count decreased” value ([2]; Grade 5) was 0 n (%). For the same compound, the “Number (%) of patients” value ([2]; Grade 5) was 0 n (%), the “G1T38-related TEAE: Alopecia” value ([2]; Overall) was 1 (5.6) n (%) and the “G1T38-related TEAE: Anaemia” value ([2]; Overall) was 6 (33.3) n (%). For the same compound, the “G1T38-related TEAE: Blood bilirubin increased” value ([2]; Overall) was 1 (5.6) n (%), the “G1T38-related TEAE: Blood creatinine increased” value ([2]; Overall) was 2 (11.1) n (%) and the “G1T38-related TEAE: Blood lactate dehydrogenase increased” value ([2]; Overall) was 1 (5.6) n (%). The “G1T38-related TEAE: Blood urea increased” value ([2]; Overall) was 1 (5.6) n (%), the “G1T38-related TEAE: Diarrhoea” value ([2]; Overall) was 5 (27.8) n (%) and the “G1T38-related TEAE: Dry eye” value ([2]; Overall) was 1 (5.6) n (%). For the same compound, the “G1T38-related TEAE: Dry mouth” value ([2]; Overall) was 1 (5.6) n (%), the “G1T38-related TEAE: Haematuria” value ([2]; Overall) was 3 (16.7) n (%) and the “G1T38-related TEAE: Lacrimation increased” value ([2]; Overall) was 1 (5.6) n (%). For the same compound, the “G1T38-related TEAE: Leukopenia” value ([2]; Overall) was 1 (5.6) n (%), the “G1T38-related TEAE: Monocyte count decreased” value ([2]; Overall) was 1 (5.6) n (%) and the “G1T38-related TEAE: Nausea” value ([2]; Overall) was 5 (27.8) n (%). For the same compound, the “G1T38-related TEAE: Neutropenia” value ([2]; Overall) was 5 (27.8) n (%), the “G1T38-related TEAE: Neutrophil count deceased” value ([2]; Overall) was 9 (50.0) n (%) and the “G1T38-related TEAE: Platelet count decreased” value ([2]; Overall) was 2 (11.1) n (%). The “G1T38-related TEAE: Stomatitis” value ([2]; Overall) was 1 (5.6) n (%), the “G1T38-related TEAE: Thombocytopenia” value ([2]; Overall) was 1 (5.6) n (%) and the “G1T38-related TEAE: Vomiting” value ([2]; Overall) was 3 (16.7) n (%). The “G1T38-related TEAE: White blood cell count decreased” value ([2]; Overall) was 7 (38.9) n (%), the “Number (%) of patients” value ([2]; Overall) was 15 (83.3) n (%) and the “more severe EGFR-TKI-related AEs” value ([2]; nonclinical and clinical data to date (see Example 6)) was “none of the more severe EGFR-TKI-related AEs have been observed”.
